This note sets out measurements from publication PMC6340889, “Structural basis of AimP signaling molecule recognition by AimR in Spbeta group of bacteriophages” (Protein & Cell, 2018).

The experiment concerns the target T1, full-length AimR (wild-type) (Bacillus phage SPbeta, UniProt O64094).
T1 construct: 6xHis (C); made in house; host or cells: E. coli BL21 (DE3)
As to the kind of experiment: Isothermal titration calorimetry (ITC), AimP vs wild-type AimR. More on the design: species or system Bacillus subtilis SPbeta phage. The note with it: wild-type full-length AimR 10–20 μM in cell, AimP 200–500 μM in syringe; 20 mM Tris-HCl (pH 8.0), 150 mM NaCl; 25°C; MicroCal iTC200; read-out: Kd (dissociation constant) for AimP binding. As to the method:
DNA sequence encoding full-length AimR from Bacillus subtilis SPbeta phage was cloned into the pET-28a vector with a C-terminal 6×His-tag. The construct was introduced into E.coli BL21 (DE3) cells. The recombinant strains were cultured in LB medium at 37°C until the OD600 reached 0.8. After 16 h of induction with 0.5 mM IPTG at 16°C, the cells were harvested by centrifugation at 5, 000 rpm for 30 min at 4°C. The pelleted cells were then resuspended in the lysis buffer containing 50 mM Tris-HCl (pH 8.0) and 150 mM NaCl, and subsequently lysed by ultrasonication. The lysate was then centrifuged at 17,000 rpm for 30 min at 4°C. Protein purification was carried out following the routine procedure (Jiang et al., 2017). Briefly, the supernatant was loaded onto a Ni-NTA column (Qiagen). The target protein was eluted with 50 mM Tris-HCl (pH 8.0) containing 150 mM NaCl and 250 mM imidazole. The fractions containing purified protein were pooled, concentrated to 0.5 ml and loaded onto a Superdex200 increase column (GE Healthcare) equilibrated with buffer containing 20 mM Tris-HCl (pH 8.0) and 150 mM NaCl. All the AimR mutant proteins were purified following the same protocol.
ITC experiments were performed using a MicroCal iTC200 instrument (Malvern Instruments Ltd.). […] The resulting isotherms were recorded and fitted with Origin software (OriginLab).
(Isothermal titration calorimetry measures the heat released or taken up as one component is titrated into another.)

pKd: −log10 of the molar value. Ends that are not written are not given here.

T1 sequence (O64094 whole entry): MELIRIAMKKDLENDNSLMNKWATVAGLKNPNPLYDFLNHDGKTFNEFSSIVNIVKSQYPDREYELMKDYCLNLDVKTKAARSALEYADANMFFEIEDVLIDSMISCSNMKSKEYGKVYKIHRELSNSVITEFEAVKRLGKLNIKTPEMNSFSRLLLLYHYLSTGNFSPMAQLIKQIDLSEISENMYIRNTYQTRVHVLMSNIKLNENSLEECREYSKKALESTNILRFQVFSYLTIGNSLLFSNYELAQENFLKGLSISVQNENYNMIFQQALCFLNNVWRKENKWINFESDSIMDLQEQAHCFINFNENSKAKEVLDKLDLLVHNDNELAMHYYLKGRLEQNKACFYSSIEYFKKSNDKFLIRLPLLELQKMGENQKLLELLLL

By pKd is commonly meant −log10 of the Kd, conventionally taken in molar units. As to GMPRGA [AimP], the pKd was 7.40.
